The target of experiment [1] is T1, human GcgR (Homo sapiens, UniProt P47871).
T1 construct: expressed in transfected cells; crude membranes
Kind of experiment: [125I]-Glucagon binding, SPA with WGA beads, 0.1% bacitracin. The conditions noted are these: geometric mean, read-out: hGcgR Ki. The essentials:
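SPA competition binding with WGA beads on crude membranes from HEK293 cells stably expressing hGcgR. Buffer: 25 mM HEPES pH 7.4, 2.5 mM CaCl2, 1 mM MgCl2, 0.1% bacitracin, 0.003% Tween-20; 10-point 3-fold dilutions, NSB with 1 μM Gcg.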

Experiment [2] deals with T2, human GIPR (Homo sapiens, UniProt P48546).
T2 construct: expressed in transfected cells; crude membranes
T2 sequence (P48546 22-466): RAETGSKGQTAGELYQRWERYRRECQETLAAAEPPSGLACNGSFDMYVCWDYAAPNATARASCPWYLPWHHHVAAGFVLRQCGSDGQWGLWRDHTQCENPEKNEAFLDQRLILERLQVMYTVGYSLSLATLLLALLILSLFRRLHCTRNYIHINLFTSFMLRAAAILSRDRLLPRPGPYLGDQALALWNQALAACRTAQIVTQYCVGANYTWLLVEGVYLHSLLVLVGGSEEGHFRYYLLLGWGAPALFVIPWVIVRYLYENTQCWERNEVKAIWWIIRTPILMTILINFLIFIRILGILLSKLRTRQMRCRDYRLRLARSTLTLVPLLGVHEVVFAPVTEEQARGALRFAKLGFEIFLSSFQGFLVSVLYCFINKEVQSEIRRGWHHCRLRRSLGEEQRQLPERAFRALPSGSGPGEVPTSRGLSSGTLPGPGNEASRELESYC
Kind of experiment: [125I]-GIP binding, SPA with WGA beads, 0.1% bacitracin. To be noted: geometric mean, read-out: hGIPR Ki. The gist of the method:
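Ki values are geometric means (SEM, n independent days), derived from four-parameter nonlinear regression of IC50. Membranes came from hGIPR-expressing CHO cells.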

This note sets out measurements from patent US12723063B2, “GIPR-agonist compounds” (Eli Lilly and Company, priority 2019, dated 2026).

Each structure is given as a SMILES string. *1 amine or outer side, *2 acyl side, *3 side chain or, on linkers, in order; H or OH if unused. Where a SMILES comes first, the peptide text is derived from it. Side-chain parts run from the residue outwards. [ ]: non-standard residue; d: D form. The star is where a group is joined. C20 diacid = O=C(O)CCCCCCCCCCCCCCCCCCC(=O)*; C18 diacid = O=C(O)CCCCCCCCCCCCCCCCC(=O)*; αMePhe(2-F) = C[C@](N)(Cc1ccccc1F)C(=O)O; γGlu = O=C(O)[C@H](CCC(=O)[*:2])N[*:1]; 4Pal = N[C@@H](Cc1ccncc1)C(=O)O; αMeL = CC(C)C[C@](C)(N)C(=O)O; Orn = NCCC[C@H](N)C(=O)O; AEEA = NCCOCCOCC(=O)O; Aib = CC(C)(N)C(=O)O

As a reminder, the Ki is the dissociation constant of the complex between target and ligand, obtained from inhibition or displacement.

T1 sequence (P47871 26-477): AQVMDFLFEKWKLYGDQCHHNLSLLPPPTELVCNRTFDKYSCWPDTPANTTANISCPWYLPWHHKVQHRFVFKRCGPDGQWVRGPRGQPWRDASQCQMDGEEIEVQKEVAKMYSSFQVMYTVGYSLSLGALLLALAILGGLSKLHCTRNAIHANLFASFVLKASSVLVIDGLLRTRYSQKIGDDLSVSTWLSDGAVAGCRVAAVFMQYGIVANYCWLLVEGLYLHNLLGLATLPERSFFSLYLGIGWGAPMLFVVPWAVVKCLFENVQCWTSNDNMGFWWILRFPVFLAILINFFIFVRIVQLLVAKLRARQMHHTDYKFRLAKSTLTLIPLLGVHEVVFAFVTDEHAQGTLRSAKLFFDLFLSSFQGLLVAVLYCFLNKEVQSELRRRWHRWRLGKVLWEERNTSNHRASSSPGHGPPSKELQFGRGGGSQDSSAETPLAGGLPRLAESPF

Take `CC[C@H](C)[C@H](NC(=O)[C@H](CCCN)NC(=O)[C@H](CC(=O)O)NC(=O)[C@H](CC(C)C)NC(=O)[C@](C)(CC(C)C)NC(=O)[C@@H](NC(=O)[C@H](CO)NC(=O)[C@H](Cc1ccc(O)cc1)NC(=O)[C@H](CC(=O)O)NC(=O)[C@H](CO)NC(=O)[C@@H](NC(=O)[C@H](Cc1ccccc1)NC(=O)[C@@H](NC(=O)CNC(=O)[C@H](CCC(=O)O)NC(=O)C(C)(C)NC(=O)[C@@H](N)Cc1ccc(O)cc1)[C@@H](C)O)[C@@H](C)CC)[C@@H](C)CC)C(=O)N[C@@H](Cc1c[nH]cn1)C(=O)N[C@@H](CCC(N)=O)C(=O)NC(C)(C)C(=O)N[C@@H](CC(=O)O)C(=O)N[C@@H](Cc1ccccc1)C(=O)N[C@H](C(=O)N[C@@H](CCC(=O)O)C(=O)N[C@@H](Cc1ccncc1)C(=O)N[C@@H](CCCCNC(=O)COCCOCCNC(=O)COCCOCCNC(=O)CC[C@H](NC(=O)CCCCCCCCCCCCCCCCCCC(=O)O)C(=O)O)C(=O)N[C@@H](CC(C)C)C(=O)N[C@@H](CCC(=O)O)C(=O)NCC(=O)NCC(=O)N1CCC[C@H]1C(=O)N[C@@H](CO)C(=O)N[C@@H](CO)C(=O)NCC(=O)N[C@@H](C)C(=O)N1CCC[C@H]1C(=O)N1CCC[C@H]1C(=O)N1CCC[C@H]1C(=O)N[C@@H](CO)C(N)=O)C(C)C` [Example 108] (H-Y[Aib]EGTFISDYSI[αMeL]LD[Orn]IHQ[Aib]DFVE[4Pal]K([AEEA-AEEA-γGlu-C20 diacid])LEGGPSSGAPPPS-NH2): the figures for the inhibitory constant (Ki) in experiment [1] and in experiment [2] were above 960 nM and 0.134 nM, respectively.

Turning to `CC[C@H](C)[C@H](NC(=O)[C@H](CCCCN)NC(=O)[C@H](CC(=O)O)NC(=O)[C@H](CC(C)C)NC(=O)[C@](C)(CC(C)C)NC(=O)[C@@H](NC(=O)[C@H](CO)NC(=O)[C@H](Cc1ccc(O)cc1)NC(=O)[C@H](CC(=O)O)NC(=O)[C@H](CO)NC(=O)[C@@H](NC(=O)[C@H](Cc1ccccc1)NC(=O)[C@@H](NC(=O)CNC(=O)[C@H](CCC(=O)O)NC(=O)C(C)(C)NC(=O)[C@@H](N)Cc1ccc(O)cc1)[C@@H](C)O)[C@@H](C)CC)[C@@H](C)CC)C(=O)N[C@@H](Cc1c[nH]cn1)C(=O)N[C@@H](CCC(N)=O)C(=O)NC(C)(C)C(=O)N[C@@H](CC(=O)O)C(=O)N[C@@H](Cc1ccccc1)C(=O)N[C@H](C(=O)N[C@@H](CCC(=O)O)C(=O)N[C@@H](Cc1ccncc1)C(=O)N[C@@H](CCCCNC(=O)COCCOCCNC(=O)COCCOCCNC(=O)CC[C@H](NC(=O)CCCCCCCCCCCCCCCCCCC(=O)O)C(=O)O)C(=O)N[C@@H](CC(C)C)C(=O)N[C@@H](CCC(=O)O)C(=O)NCC(=O)NCC(=O)N1CCC[C@H]1C(=O)N[C@@H](CO)C(=O)N[C@@H](CO)C(=O)NCC(=O)N[C@@H](C)C(=O)N1CCC[C@H]1C(=O)N1CCC[C@H]1C(=O)N1CCC[C@H]1C(=O)N[C@@H](CO)C(N)=O)C(C)C` [Example 109] (H-Y[Aib]EGTFISDYSI[αMeL]LDKIHQ[Aib]DFVE[4Pal]K([AEEA-AEEA-γGlu-C20 diacid])LEGGPSSGAPPPS-NH2), the inhibition constant Ki in experiment [1] is above 960 nM; in experiment [2] it was 0.117 nM.

Regarding `CC[C@H](C)[C@H](NC(=O)[C@H](CCCCN)NC(=O)[C@H](CC(=O)O)NC(=O)[C@H](CC(C)C)NC(=O)[C@](C)(CC(C)C)NC(=O)[C@@H](NC(=O)[C@H](CO)NC(=O)[C@H](Cc1ccc(O)cc1)NC(=O)[C@H](CC(=O)O)NC(=O)[C@H](CO)NC(=O)[C@@H](NC(=O)[C@H](Cc1ccccc1)NC(=O)[C@@H](NC(=O)CNC(=O)[C@H](CCC(=O)O)NC(=O)C(C)(C)NC(=O)[C@@H](N)Cc1ccc(O)cc1)[C@@H](C)O)[C@@H](C)CC)[C@@H](C)CC)C(=O)N[C@@H](Cc1c[nH]cn1)C(=O)N[C@@H](CCC(N)=O)C(=O)NC(C)(C)C(=O)N[C@@H](CC(=O)O)C(=O)N[C@@H](Cc1ccccc1)C(=O)N[C@H](C(=O)N[C@@H](CCC(=O)O)C(=O)N[C@@H](Cc1ccncc1)C(=O)N[C@@H](CCCCNC(=O)COCCOCCNC(=O)COCCOCCNC(=O)CC[C@H](NC(=O)CCCCCCCCCCCCCCCCC(=O)O)C(=O)O)C(=O)N[C@@H](CC(C)C)C(=O)N[C@@H](CCC(=O)O)C(=O)NCC(=O)NCC(=O)N1CCC[C@H]1C(=O)N[C@@H](CO)C(=O)N[C@@H](CO)C(=O)NCC(=O)N[C@@H](C)C(=O)N1CCC[C@H]1C(=O)N1CCC[C@H]1C(=O)N1CCC[C@H]1C(=O)N[C@@H](CO)C(N)=O)C(C)C` [Example 110] (H-Y[Aib]EGTFISDYSI[αMeL]LDKIHQ[Aib]DFVE[4Pal]K([AEEA-AEEA-γGlu-C18 diacid])LEGGPSSGAPPPS-NH2), the results for the inhibition constant (Ki) in experiment [1] and in experiment [2] were above 960 nM and 0.339 nM, respectively.

Turning to `CC[C@H](C)[C@H](NC(=O)[C@H](CCCN)NC(=O)[C@H](CC(=O)O)NC(=O)[C@H](CC(C)C)NC(=O)[C@](C)(CC(C)C)NC(=O)[C@@H](NC(=O)[C@H](CO)NC(=O)[C@H](Cc1ccc(O)cc1)NC(=O)[C@H](CC(=O)O)NC(=O)[C@H](CO)NC(=O)[C@@H](NC(=O)[C@H](Cc1ccccc1)NC(=O)[C@@H](NC(=O)CNC(=O)[C@H](CCC(=O)O)NC(=O)C(C)(C)NC(=O)[C@@H](N)Cc1ccc(O)cc1)[C@@H](C)O)[C@@H](C)CC)[C@@H](C)CC)C(=O)N[C@@H](Cc1c[nH]cn1)C(=O)N[C@@H](CCC(N)=O)C(=O)NC(C)(C)C(=O)N[C@@H](CC(=O)O)C(=O)N[C@@H](Cc1ccccc1)C(=O)N[C@H](C(=O)N[C@@H](CCC(=O)O)C(=O)N[C@@H](Cc1ccncc1)C(=O)N[C@@H](CCCCNC(=O)COCCOCCNC(=O)COCCOCCNC(=O)CC[C@H](NC(=O)CCCCCCCCCCCCCCCCC(=O)O)C(=O)O)C(=O)N[C@@H](CC(C)C)C(=O)N[C@@H](CCC(=O)O)C(=O)NCC(=O)NCC(=O)N1CCC[C@H]1C(=O)N[C@@H](CO)C(=O)N[C@@H](CO)C(=O)NCC(=O)N[C@@H](C)C(=O)N1CCC[C@H]1C(=O)N1CCC[C@H]1C(=O)N1CCC[C@H]1C(=O)N[C@@H](CO)C(N)=O)C(C)C` [Example 111] (H-Y[Aib]EGTFISDYSI[αMeL]LD[Orn]IHQ[Aib]DFVE[4Pal]K([AEEA-AEEA-γGlu-C18 diacid])LEGGPSSGAPPPS-NH2), the Ki was above 960 nM in experiment [1] and 0.0871 nM in experiment [2].

Consider `CC[C@H](C)[C@H](NC(=O)[C@H](CO)NC(=O)[C@H](Cc1ccc(O)cc1)NC(=O)[C@H](CC(=O)O)NC(=O)[C@H](CO)NC(=O)[C@@H](NC(=O)[C@](C)(Cc1ccccc1F)NC(=O)[C@@H](NC(=O)CNC(=O)[C@H](CCC(=O)O)NC(=O)C(C)(C)NC(=O)[C@@H](N)Cc1ccc(O)cc1)[C@@H](C)O)[C@@H](C)CC)C(=O)N[C@@H](C)C(=O)N[C@@H](CC(C)C)C(=O)N[C@@H](CC(=O)O)C(=O)N[C@@H](CCCCN)C(=O)N[C@H](C(=O)N[C@@H](Cc1c[nH]cn1)C(=O)N[C@@H](CCC(N)=O)C(=O)NC(C)(C)C(=O)N[C@@H](CC(=O)O)C(=O)N[C@@H](Cc1ccccc1)C(=O)N[C@H](C(=O)N[C@@H](CCC(=O)O)C(=O)N[C@@H](Cc1ccncc1)C(=O)N[C@@H](CCCCNC(=O)COCCOCCNC(=O)COCCOCCNC(=O)CC[C@H](NC(=O)CCCCCCCCCCCCCCCCCCC(=O)O)C(=O)O)C(=O)N[C@@H](CC(C)C)C(=O)N[C@@H](CCC(=O)O)C(=O)NCC(=O)NCC(=O)N1CCC[C@H]1C(=O)N[C@@H](CO)C(=O)N[C@@H](CO)C(=O)NCC(=O)N[C@@H](C)C(=O)N1CCC[C@H]1C(=O)N1CCC[C@H]1C(=O)N1CCC[C@H]1C(=O)N[C@@H](CO)C(N)=O)C(C)C)[C@@H](C)CC` [Example 112] (H-Y[Aib]EGT[αMePhe(2-F)]ISDYSIALDKIHQ[Aib]DFVE[4Pal]K([AEEA-AEEA-γGlu-C20 diacid])LEGGPSSGAPPPS-NH2), for which the results for the inhibitory constant (Ki) in experiment [1] and in experiment [2] were 257 nM and 0.0742 nM, respectively.

In the case of `CC[C@H](C)[C@H](NC(=O)[C@H](CO)NC(=O)[C@H](Cc1ccc(O)cc1)NC(=O)[C@H](CC(=O)O)NC(=O)[C@H](CO)NC(=O)[C@@H](NC(=O)[C@](C)(Cc1ccccc1F)NC(=O)[C@@H](NC(=O)CNC(=O)[C@H](CCC(=O)O)NC(=O)C(C)(C)NC(=O)[C@@H](N)Cc1ccc(O)cc1)[C@@H](C)O)[C@@H](C)CC)C(=O)N[C@@H](C)C(=O)N[C@@H](CC(C)C)C(=O)N[C@@H](CC(=O)O)C(=O)N[C@@H](CCCCN)C(=O)N[C@H](C(=O)N[C@@H](Cc1c[nH]cn1)C(=O)N[C@@H](CCC(N)=O)C(=O)NC(C)(C)C(=O)N[C@@H](CC(=O)O)C(=O)N[C@@H](Cc1ccccc1)C(=O)N[C@H](C(=O)N[C@@H](CCC(=O)O)C(=O)N[C@@H](Cc1ccncc1)C(=O)N[C@@H](CCCCNC(=O)COCCOCCNC(=O)COCCOCCNC(=O)CC[C@H](NC(=O)CCCCCCCCCCCCCCCCCCC(=O)O)C(=O)O)C(=O)N[C@@H](CC(C)C)C(=O)N[C@@H](CCC(=O)O)C(=O)N[C@@H](C)C(=O)NCC(=O)N1CCC[C@H]1C(=O)N[C@@H](CO)C(=O)N[C@@H](CO)C(=O)NCC(=O)N[C@@H](C)C(=O)N1CCC[C@H]1C(=O)N1CCC[C@H]1C(=O)N1CCC[C@H]1C(=O)N[C@@H](CO)C(N)=O)C(C)C)[C@@H](C)CC` [Example 113] (H-Y[Aib]EGT[αMePhe(2-F)]ISDYSIALDKIHQ[Aib]DFVE[4Pal]K([AEEA-AEEA-γGlu-C20 diacid])LEAGPSSGAPPPS-NH2), the Ki in experiment [1] was 821 nM; in experiment [2], 0.108 nM.
